The source of these data is patent publication US20060020014A1, “Method for treating nervous system disorders and conditions” (Wyeth, priority 2004, published 2006).

For assay [1], the system named is SNL rats, tactile allodynia. The assay can be described thus: Spinal nerve ligation (SNL) model of neuropathic pain, tactile hypersensitivity (von Frey). The class given is in vivo, rat. As to conditions: 30 mg/kg IP, 30-300 minutes after administration. An excerpt:
Subjects. Male Sprague-Dawley rats (Indianapolis, Ind.) weighing 150 to 200 g at time of arrival, were individually housed in wire cages in a climate-controlled room. A 12-hour light/dark cycle (lights on at 0630) was in effect, and food and water were available ad libitum.
Surgery—Spinal Nerve Ligation. Rats were anesthetized with 3.5% halothane in O2 at 1 L/min and maintained with 1.5% halothane in O2 during surgery. Ligation of the L5 and L6 nerves was produced by an incision through the left paraspinal muscles. The left L5 and L6 spinal nerves were isolated adjacent to the vertebral column and ligated tightly with 6-0 silk suture just distal to the dorsal root ganglion. The wound was closed in layers using 4-0 silk suture and wound clips. Testing began 7 days after surgery.
Assessment of tactile hypersensitivity. […] Baseline tactile sensitivity was assessed using a series of calibrated von Frey monofilaments (Stoelting; Wood Dale, Ill.) 0 to 3 days before surgery. […] The ability of a single dose of test compound to reverse established hypersensitivity was assessed using a time course procedure. […]
Results are presented as the 50% threshold values (50% threshold in g force) estimated by the Dixon non-parametric test. […] Significant main effects were analyzed further by subsequent least significant difference analysis. […]

Assay [2] has as its target T1, human serotonin transporter (hSERT) (Homo sapiens, UniProt P31645).
T1 construct: The methods for 5-HT functional reuptake using the JAR cell line were modified using a previous literature report; host or cells: JAR (human placental choriocarcinoma), staurosporine-stimulated
The assay can be described thus: Serotonin (5-HT) uptake assay in JAR cells (hSERT function uptake). The assay is classed as cell-based. As to conditions: [3H]5-HT uptake. As for the experimental part: The methods for 5-HT functional reuptake using the JAR cell line were modified using a previous literature report. […] On day 2, cells were stimulated with staurosporine (40 nM) to increase the expression of the 5-HT transporter. On day 3, cells were removed from the cell incubator two hours prior to assay and maintained at room temperature to equilibrate the growth medium to ambient oxygen concentration. […] Twenty-five microliters of assay buffer (maximum 5-HT uptake) or test compound were added directly to triplicate wells containing cells in 200 μl of assay buffer. The cells were incubated with the compound for 10 minutes (37° C.). […] The cells were incubated with the reaction mixture for 5 minutes at 37° C. The 5-HT uptake reaction was terminated by decanting the assay buffer.

For assay [3], the target named is hNET (Homo sapiens, UniProt P23975). The assay can be described thus: hNET binding.
The test system of assay [4] is OVX rats, tail skin temperature (TST). Nature of the assay: Telemetry rat model of ovariectomy-induced thermoregulatory dysfunction (tail skin temperature). The assay is classed as in vivo. The note with it: 30 mg/kg, sc; p<0.05 compared to vehicle control.
Assay [5] shares this test system. The assay is described as above. The assay is classed as in vivo. The note with it: 30 mg/kg sc; for Duration: duration of effect on TST; for Onset: onset of action on TST. From the text:
This model has been modified from a previously reported protocol describing estrogen regulation of diurnal tail skin temperature (TST) patterns (Berendsen, et al., European Journal of Pharmacology, 2001, 419(1): 47-54). […] A temperature and physical activity transmitter (PhysioTel TA10TA-F40, Data Sciences International) was implanted subcutaneously in the dorsal scapular region and the tip of the temperature probe was tunneled subcutaneously 2.5 cm beyond the base of the tail. After a 7-day recovery period, TST readings were continuously recorded for the remainder of the study. Tail skin temperature readings were collected from each animal every 5 minutes with values obtained over a 10 second sampling period. The day before test day, an average baseline TST value was calculated for each animal by averaging temperature readings recorded during the 12 hour active (dark) phase. In these studies, animals were dosed approximately 40 minutes prior to the onset of dark cycle.
Statistical analysis: Evaluation of a compound's ability to restore normal lowering of TST in the telemetry model was analyzed using hourly TST values calculated for each animal by averaging the 12 temperature readings obtained every 5 minutes over that recording time. To analyze ΔTST in the telemetry model, a two factors repeated measure ANOVA was performed. The model used for analysis was ΔTST=GRP (group)+HR (hours)+GRP*HR+BASELINE. Thus, the reported least squares means are the expected mean values as if both groups had the same baseline value. Post-hoc tests of hourly GRP*HR samples are t-tests of the difference between groups for each hour. To be conservative, a result was not considered significant unless the p-value was <0.025. All analyses were performed using SAS PROC MIXED (SAS, Carey, N.C.).
Rats were injected subcutaneously with vehicle (2%Tween/0.5% methylcellulose) or 30 mg/kg, sc test compound dissolved in 2%Tween/0.5% methylcellulose. The effect of test compound is measured by evaluating the following parameters in this model: onset of action, duration of effect on TST, maximal change in TST and mean change in TST over the duration of the compound effect.

Assay [6] has as its target human norepinephrine transporter (hNET) (Homo sapiens, UniProt P23975). Nature of the assay: cell-based. As to conditions: hNET function uptake (EC50 in nm), MDCK-Net6 cells, [3H]NE uptake. As for the experimental part:
Test compounds were prepared in DMSO (10 mM) and diluted in assay buffer according to test range (1 to 10,000 nM). Twenty-five microliters of assay buffer (maximum NE uptake) or test compound were added directly to triplicate wells containing cells in 200 μl of assay buffer. […] To initiate the NE uptake, [^3H]NE diluted in assay buffer (120 nM final assay concentration) was delivered in 25 μl aliquots to each well and the plates were incubated for 5 minutes (37° C.).

Assay [7] addresses hSERT (Homo sapiens, UniProt P31645). The assay can be described thus: hSERT binding.

In general, EC50 refers to the concentration that produces a half-maximal response. Lower therefore signals greater potency.

Values joined by “and” are separate entries in the source; they are usually repeats but may differ in a detail not shown here. Equal values may be shown once.

Chain of human norepinephrine transporter (hNET) (P23975 whole entry): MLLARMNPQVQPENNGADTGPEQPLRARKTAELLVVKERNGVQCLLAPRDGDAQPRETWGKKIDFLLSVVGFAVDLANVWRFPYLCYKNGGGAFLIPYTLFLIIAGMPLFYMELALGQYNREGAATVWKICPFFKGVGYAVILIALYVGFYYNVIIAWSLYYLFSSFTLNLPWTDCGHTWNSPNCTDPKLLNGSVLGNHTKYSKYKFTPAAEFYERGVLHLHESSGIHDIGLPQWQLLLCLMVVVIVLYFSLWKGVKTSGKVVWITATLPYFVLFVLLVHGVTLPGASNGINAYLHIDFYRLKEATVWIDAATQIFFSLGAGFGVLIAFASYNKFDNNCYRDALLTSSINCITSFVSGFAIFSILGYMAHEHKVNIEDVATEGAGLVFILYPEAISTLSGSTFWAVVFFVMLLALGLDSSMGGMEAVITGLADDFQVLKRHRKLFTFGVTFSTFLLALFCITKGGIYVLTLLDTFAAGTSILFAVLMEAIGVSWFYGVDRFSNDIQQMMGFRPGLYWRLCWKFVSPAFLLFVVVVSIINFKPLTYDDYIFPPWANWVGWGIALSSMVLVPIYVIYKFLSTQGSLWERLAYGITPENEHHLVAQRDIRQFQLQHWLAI
T1 sequence (P31645 whole entry): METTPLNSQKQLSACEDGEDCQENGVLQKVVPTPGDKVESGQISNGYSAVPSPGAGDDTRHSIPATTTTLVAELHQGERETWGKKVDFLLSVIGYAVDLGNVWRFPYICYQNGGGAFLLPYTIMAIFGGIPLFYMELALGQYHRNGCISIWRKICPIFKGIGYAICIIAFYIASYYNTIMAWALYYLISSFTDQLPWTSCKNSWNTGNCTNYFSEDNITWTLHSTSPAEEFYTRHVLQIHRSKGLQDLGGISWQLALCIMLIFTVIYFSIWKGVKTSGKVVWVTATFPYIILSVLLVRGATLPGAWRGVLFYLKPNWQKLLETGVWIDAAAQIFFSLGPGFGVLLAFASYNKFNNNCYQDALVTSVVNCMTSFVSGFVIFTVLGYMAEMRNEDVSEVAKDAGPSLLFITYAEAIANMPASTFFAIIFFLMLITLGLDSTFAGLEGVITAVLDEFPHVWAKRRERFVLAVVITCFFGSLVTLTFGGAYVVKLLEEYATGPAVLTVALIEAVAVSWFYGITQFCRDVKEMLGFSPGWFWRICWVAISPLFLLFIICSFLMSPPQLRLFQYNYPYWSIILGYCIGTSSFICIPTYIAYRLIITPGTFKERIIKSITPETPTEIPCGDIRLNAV
Chain of hSERT (P31645 whole entry): as above
Chain of hNET (P23975 whole entry): as the sequence (P23975 whole entry) above

In the case of `Clc1ccc(C23CNCC2C3)cc1Cl` (racemic) [Racemic 1-(3,4-dichlorophenyl)-3-azabicyclo[3.1.0]hexane, 1-(3,4-dichlorophenyl)-3-azabicyclo[3.1.0]hexane], in assay [1], the “Reversal of tactile allodynia in the SNL neuropathic pain model” value is reported as “significantly reverses tactile allodynia”.

In assay [2], `Cc1ccc(C23CNCC2C3)cc1` (racemic) [Racemic 1-(4-methylphenyl)-3-azabicyclo[3.1.0]hexane, 1-(4-methylphenyl)-3-azabicyclo[3.1.0]hexane] yielded an EC50 of 736 nM. Besides, in assay [3], the “hNET binding (% I @ 1 μM)” value was found to be 71.8 % I. For the same molecule, the “Restoration of normal TST in OVX-induced thermoregulatory dysfunction telemetry model” value in assay [4] is listed as “restores normal TST”. In addition, in assay [5], the “Activity Index” value was -10.6 h, the “Duration” value amounted to 3.5 h and the “Onset” value was found to be 0.5 h. In addition, the EC50 in assay [6] is 265 nM and 426 nM. Also, the “hSERT binding (% I @ 1 μM)” value in assay [7] is recorded as 42.8 % I.

With `Cc1ccc(C23CNCC2C3)cc1` (single isomer, unassigned; (+)) [(+)-1-(4-methylphenyl)-3-azabicyclo[3.1.0]hexane], the “Restoration of normal TST in OVX-induced thermoregulatory dysfunction telemetry model” value in assay [4] is listed as “restores normal TST”. In assay [5], the “Activity Index” value was -2.99 h, the “Duration” value turned out to be 3.5 h and the “Onset” value was determined as 0.5 h.
